Test results reported in BindingDB's records for PubMed 9067310 (Institut De Recherches Servier, 1997).

Experiments:
[1] = target: T1, 5-hydroxytryptamine receptor 1A (Homo sapiens, UniProt P08908)
T1 sequence (P08908 whole entry): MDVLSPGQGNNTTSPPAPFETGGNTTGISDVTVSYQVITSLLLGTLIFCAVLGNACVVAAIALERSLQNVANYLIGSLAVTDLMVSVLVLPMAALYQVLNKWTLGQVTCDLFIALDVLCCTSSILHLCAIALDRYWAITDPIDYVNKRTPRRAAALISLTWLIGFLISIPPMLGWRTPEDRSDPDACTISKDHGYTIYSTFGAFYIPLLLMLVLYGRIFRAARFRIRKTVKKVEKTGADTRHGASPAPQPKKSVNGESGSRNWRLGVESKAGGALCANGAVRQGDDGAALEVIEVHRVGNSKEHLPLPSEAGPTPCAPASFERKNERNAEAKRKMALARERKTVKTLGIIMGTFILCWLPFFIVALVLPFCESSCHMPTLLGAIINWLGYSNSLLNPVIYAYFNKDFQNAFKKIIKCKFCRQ

[2] = target: D(2) dopamine receptor (Homo sapiens, UniProt P14416)
D(2) dopamine receptor, sequence (P14416 whole entry): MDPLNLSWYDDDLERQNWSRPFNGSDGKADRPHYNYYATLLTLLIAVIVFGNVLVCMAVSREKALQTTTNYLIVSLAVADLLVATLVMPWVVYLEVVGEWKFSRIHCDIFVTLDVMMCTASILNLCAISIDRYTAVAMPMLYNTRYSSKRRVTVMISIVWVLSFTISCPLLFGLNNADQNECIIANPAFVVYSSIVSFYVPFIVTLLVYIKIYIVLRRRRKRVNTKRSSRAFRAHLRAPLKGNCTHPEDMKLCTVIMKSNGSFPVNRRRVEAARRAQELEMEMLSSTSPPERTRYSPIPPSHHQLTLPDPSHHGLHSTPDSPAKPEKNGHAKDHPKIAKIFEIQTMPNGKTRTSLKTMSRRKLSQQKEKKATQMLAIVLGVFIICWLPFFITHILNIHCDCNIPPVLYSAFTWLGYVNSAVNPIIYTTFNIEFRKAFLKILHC

Row | SMILES | Ki [1] [nM] | Ki [2] [nM]
1 | CCCN(CCC)C1CCc2ccc(O)cc2C1 (stereo not drawn) | 265 | –
2 | CC(C)(C)NCC(O)COc1cccc2c1SCCC2 (single isomer, unassigned; (-)) [TERTATOLOL(-)] | 6.7 | > 10000
